We go through one substance from patent publication US20150110716A1, “METHODS OF USING SPECT/CT ANALYSIS FOR STAGING CANCER” (Molecular Insight Pharmaceuticals, Inc., priority 2013, published 2015).

Values joined by “and” are separate entries in the source; they are usually repeats but may differ in a detail not shown here. Equal entries are not always repeated.

Experiment [1] relates to prostate cancer lesions (PSMA expressing). The experiment is described as follows: Phase 1 study before radical prostatectomy: SPECT uptake in prostate lesions vs Gleason score. Type of experiment: in vivo, human. Also noted: Clinical Reading: scale not given here. As to conditions: for tumor/background ratio: 20 mCi, SPECT 2-4 hours p.i. The method, then:
Patients (n=8) diagnosed with localized PCa (Gleason ≧7 with ≧3 biopsy cores positive, and at least one core ≧30% involved with PCa) and who were scheduled for radical prostatectomy (RP) participated in this Phase 1 study. Within two weeks of surgery, each subject received a single dose of a compound represented by Formula (1), (20 mCi), and was then subjected to a planar whole body and Single Photon Emission Computed Tomography (SPECT) images between 2-4 hours post injection (p.i.). The uptake of the Tc-99m in prostate lesions was quantified, and the imaging results were compared to CT/MRI, histopathology and PSMA staining.

For experiment [2], the system named is high-grade prostate cancer in lobes and segments of the prostate gland. Kind of experiment: Phase 1 study: SPECT/CT T/B ratio (threshold 5.9) vs step-section histopathology. The class given is in vivo, human. The text has this: Protocol for Determining the Optimal Threshold Value for Discriminating Low Grade Prostate Cancer from a Higher Grade Prostate Cancer. Methods: SPECT/CT images of the pelvis including the prostate gland were obtained with a hybrid gamma camera in a 128×128 pixel matrix format with a 360 degree circular or elliptical orbit acquired into 120-128 frames. Raw images were reconstructed into 3D space with an iterative ordered subset estimation maximization algorithm corrected for attenuation and resolution recovery. […] Circular regions of interest with a diameter of approximately 20 pixels were placed on the obturator muscle adjacent to and to the left side (patient left) of the prostate gland. Counts within that region were recorded as background. Axial slices through the lower third, middle and upper third of the gland were selected to sample the apex, mid-gland and base of the prostate respectively. Radioactivity counts form the right and left side of the gland for each of the three slices were obtained for the same sized circular region of interest as background. The target to background ratio (T/B) was obtained by dividing the counts from prostate tissue by the background count. When large intense lesions originating in one side of the gland crossed the midline due to morphological changes to the anatomy, the area was scored according to the site of origin.
The suitability of a compound represented by Formula (1) to detect and discriminate between tumor tissue and normal tissue was tested in a Phase 1 study by comparing the SPECT/CT images obtained using a compound represented by Formula (1) with step-section histopathology in 8 patients (pts) undergoing radical prostatectomy. Briefly, 8 patients were administered 20mCi of the Formula (1) compound and SPECT/CT images of the pelvis were acquired 2 hours after injection. The T/B ratio was calculated for six segments of the prostate gland based on the images. Imaging results in segments and right and left lobes of the prostate were compared with Primary Gleason Grades (PGG) and total Gleason Scores (GS) recorded by a blinded pathologist. Sensitivity, specificity, accuracy for a T/B threshold of 5.9 were calculated by a receiver operator curve as explained above.

[3] abbreviates: individual subjects (n=8), Gleason score 7 or 9, listed as 99mTc-MIP-1404.
The mark [4] stands for this setting: Lobe Gleason Score ≧7, T/B threshold 5.9.
Setting [5] is: Segment Dominant Grade ≧4, T/B threshold 5.9.
Setting [6] is: Segment Gleason Score ≧7, T/B threshold 5.9.

Take “(OC-6-33)-tricarbonyl[N^2-{[(1S)-1,3-dicarboxypropyl]amino]carbamoyl}-L-γ-glutamyl-N^6,N^6-bis[(1-{2-[bis(carboxymethyl)amino]-2-oxoethyl]-1H-imidazol-2-yl-κN^3]methyl]-L-lysine-κN^6](^99mTc)(+)chloride [Formula (1)]”: the “correlation between 99mTc uptake levels and the Gleason score” value in experiment [1] (Formula (1) compared with Formula (2)) is given as “stronger”. Besides, the figures for the tumor/background ratio in experiment [1] (Gleason score of 7) and in experiment [1] (Gleason score of 9) were 10.8±2.2 and 30±10, respectively. The “identification of PCa foci confirmed by histopathology and PSMA staining” value in experiment [1] (all subjects with Gleason score ≧7) is recorded as “clearly identified the PCa foci”. Moreover, the “Clinical Reading” value in experiment [1] (setting [3]) was 0 and 1 (3×) and 3 (2×) and 4 (2×). In addition, the “T/B Ratio” value in experiment [1] (setting [3]) is 13 and 14 and 10.5 and 10 and 6.5 and 15.5 and 33 and 45. The “identification of presence of primary prostate cancer” value in experiment [2] (8 patients, 20 mCi, SPECT/CT 2 hours after injection) is recorded as “correctly identified the presence of primary prostate cancer in all patients”. In addition, the “AUC ± SE (ROC)” value is 0.969 ± 0.04 in experiment [2] (Lobe Gleason Score ≧7), 0.942 ± 0.04 in experiment [2] (Segment Dominant Grade ≧4) and 0.87 ± 0.05 in experiment [2] (Segment Gleason Score ≧7). The Accuracy in experiment [2] (setting [4]) is 93.8% and 93.8 (15/18) %; in experiment [2] (setting [5]) it was 89.6% and 89.6 (43/48) %; in experiment [2] (setting [6]), 81.3% and 81.3 (39/48) %. Besides, the Sensitivity was determined as 92.3% in experiment [2] (setting [4]), 90.0% in experiment [2] (setting [5]) and 71.4% in experiment [2] (setting [6]). Moreover, the Specificity in experiment [2] (setting [4]) is reported as 100%; in experiment [2] (setting [5]) it was 89.3%; in experiment [2] (setting [6]), 95%.
